Test results as given in the supplement of paper PMC10307832.

Experiments:
Test in all cases: relative viability (nuclei count vs DMSO), 5 days (fraction); higher = more cells survive
[1] = compound: CN(NC(=O)CC(=O)NN(C)C(=S)c1ccccc1)C(=S)c1ccccc1 [Elesclomol] + CC(=O)Nc1cccc(-n2c(=O)n(C3CC3)c(=O)c3c(Nc4ccc(I)cc4F)n(C)c(=O)c(C)c32)c1 [Trametinib] (partner 0.02 µM)
Outline: (§1)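 Lung cancer cell lines, seeded in 1536-well plates, were treated the following day by pin tool with a single drug or with five library-drug doses (not always all listed) in √10 steps on top of a fixed anchor-drug dose. Cells were fixed and nuclei stained in one step after 5 days, and nuclei were counted. Relative viability is the nuclei count for treated wells divided by that for vehicle wells, reported as medians of duplicate plates.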

[2] = compound: CN(NC(=O)CC(=O)NN(C)C(=S)c1ccccc1)C(=S)c1ccccc1 [Elesclomol] + CC1(C)CCC(c2ccc(Cl)cc2)=C(CN2CCN(c3ccc(C(=O)NS(=O)(=O)c4ccc(N[C@H](CCN5CCOCC5)CSc5ccccc5)c(S(=O)(=O)C(F)(F)F)c4)cc3)CC2)C1 [Navitoclax] (partner 0.5 µM)
Outline: as §1

[3] = compound: CN(NC(=O)CC(=O)NN(C)C(=S)c1ccccc1)C(=S)c1ccccc1 [Elesclomol] + CCNC(=O)c1noc(-c2cc(C(C)C)c(O)cc2O)c1-c1ccc(CN2CCOCC2)cc1 [Luminespib] (partner 0.01 µM)
Outline: as §1

[4] = compound: CN(NC(=O)CC(=O)NN(C)C(=S)c1ccccc1)C(=S)c1ccccc1 [Elesclomol] + NC(=O)Nc1cc(-c2cccc(F)c2)sc1C(=O)N[C@H]1CCCNC1 [AZD7762] (partner 0.2 µM)
Outline: as §1

[5] = compound: CN(NC(=O)CC(=O)NN(C)C(=S)c1ccccc1)C(=S)c1ccccc1 [Elesclomol] + Nc1ncn([C@H]2C[C@H](O)[C@@H](CO)O2)c(=O)n1 [Decitabine] (partner 2 µM)
Outline: as §1

Row | Cell Line | relative viability ([1]; first compound 0.003162 µM) | relative viability ([1]; first compound 0.01 µM) | relative viability ([1]; first compound 0.03162 µM) | relative viability ([1]; first compound 0.1 µM) | relative viability ([2]; first compound 0.003162 µM) | relative viability ([2]; first compound 0.01 µM) | relative viability ([2]; first compound 0.03162 µM) | relative viability ([2]; first compound 0.1 µM) | relative viability ([3]; first compound 0.003162 µM) | relative viability ([3]; first compound 0.01 µM) | relative viability ([3]; first compound 0.03162 µM) | relative viability ([3]; first compound 0.1 µM) | relative viability ([4]; first compound 0.003162 µM) | relative viability ([4]; first compound 0.01 µM) | relative viability ([4]; first compound 0.03162 µM) | relative viability ([4]; first compound 0.1 µM) | relative viability ([5]; first compound 0.003162 µM) | relative viability ([5]; first compound 0.01 µM) | relative viability ([5]; first compound 0.03162 µM) | relative viability ([5]; first compound 0.1 µM)
1 | 201T | 0.707 | 0.749 | 0.742 | 0.682 | 1.16 | 1.16 | 1.23 | 1.16 | 1.01 | 1.02 | 0.978 | 0.562 | 0.558 | 0.628 | 0.564 | 0.598 | 0.869 | 0.844 | 0.818 | 0.854
2 | A-427 | 0.761 | 0.411 | 0.236 | 0.183 | 0.904 | 0.827 | 1 | 0.499 | 0.701 | 0.498 | 0.27 | 0.117 | 0.756 | 0.527 | 0.188 | 0.151 | 0.601 | 0.453 | 0.285 | 0.194
3 | BEN | 0.915 | 0.65 | 0.749 | 0.395 | 0.049 | 0.0566 | 0.0364 | 0.0268 | 0.333 | 0.232 | 0.158 | 0.237 | 0.654 | 0.54 | 0.38 | 0.294 | 0.677 | 0.483 | 0.419 | 0.333
4 | CAL-12T | 0.265 | 0.139 | 0.113 | 0.114 | 1 | 0.243 | 0.123 | 0.0625 | 0.328 | 0.115 | 0.0856 | 0.0463 | 0.622 | 0.483 | 0.3 | 0.17 |  |  |  | 
5 | ChaGo-K-1 | 0.932 | 0.802 | 0.571 | 0.15 | 0.739 | 0.374 | 0.258 | 0.221 | 0.524 | 0.541 | 0.184 | 0.128 | 0.88 | 0.715 | 0.416 | 0.139 | 0.531 | 0.473 | 0.415 | 0.163
6 | EKVX | 0.313 | 0.188 | 0.144 | 0.105 | 0.875 | 0.658 | 0.289 | 0.205 | 0.831 | 0.539 | 0.169 | 0.145 | 0.569 | 0.318 | 0.206 | 0.0929 | 0.395 | 0.222 | 0.148 | 0.132
7 | EMC-BAC-2 | 0.813 | 0.808 |  | 0.4 | 1.2 | 1.06 | 1.06 | 0.604 | 1.23 | 1.04 | 0.535 | 0.383 | 1.2 | 0.775 | 0.831 | 0.684 | 0.933 | 0.804 |  | 0.408
8 | EPLC-272H | 0.264 | 0.111 | 0.09 | 0.119 | 1.1 |  | 1.03 | 0.164 | 0.333 |  | 0.576 | 0.125 | 0.255 | 0.159 | 0.11 | 0.104 | 0.35 | 0.134 | 0.0913 | 0.103
9 | H3255 | 0.585 | 0.532 | 0.328 | 0.284 | 0.629 | 0.457 | 0.171 | 0.128 | 0.883 | 0.875 | 0.547 | 0.395 | 0.818 | 0.773 | 0.584 | 0.521 | 0.617 | 0.486 | 0.296 | 0.243
10 | HARA | 0.704 | 0.465 | 0.189 | 0.159 | 1.16 | 1.17 | 0.884 | 0.267 | 0.545 | 0.669 | 0.1 | 0.0826 | 0.348 | 0.288 | 0.302 | 0.227 | 0.562 | 0.584 | 0.271 | 0.158
11 | HCC-15 | 0.351 | 0.42 | 0.345 | 0.158 | 0.73 | 0.656 | 0.439 | 0.373 | 0.27 | 0.194 | 0.11 | 0.0457 | 1.15 | 1.3 | 1.13 | 0.632 | 0.623 | 0.478 | 0.343 | 0.206
12 | HCC-44 | 1.14 | 1.09 | 1.08 | 1.05 | 0.941 | 0.993 | 0.987 | 0.538 | 1.01 | 0.86 | 0.213 | 0.178 | 1 | 0.942 | 0.996 | 1 | 0.913 | 0.941 | 0.952 | 0.94
13 | HCC-78 | 0.7 | 0.549 | 0.674 | 0.722 | 0.778 | 0.755 | 0.793 | 0.627 |  |  |  |  | 0.672 | 0.696 | 0.513 | 0.642 | 0.727 | 0.674 | 0.701 | 0.564
14 | HCC-366 | 0.383 | 0.311 | 0.114 | 0.0129 | 1.06 | 1.07 | 1.02 | 0.137 |  |  |  |  | 0.312 | 0.255 | 0.393 | 0.0195 | 0.39 | 0.31 | 0.0994 | 0.0263
15 | HCC-827 | 0.571 | 0.442 | 0.555 | 0.504 | 1.02 | 0.995 | 1 | 0.756 | 0.586 | 0.54 | 0.579 | 0.473 | 0.25 | 0.253 | 0.163 | 0.191 | 0.344 | 0.35 | 0.283 | 0.252
16 | HOP-62 | 0.397 | 0.385 | 0.386 | 0.237 | 0.904 | 0.553 | 0.647 | 0.302 | 0.877 | 0.892 | 0.962 | 0.554 | 0.545 | 0.576 | 0.389 | 0.104 | 0.189 | 0.231 | 0.214 | 0.137
